In patent US8927544B2, “Benzofuran-2-sulfonamides derivatives as chemokine receptor modulators” (Allergan, Inc., priority 2012, dated 2015):
Read-outs that look alike come from different tables or passages of the source.

Target: T1, CCR2 (Homo sapiens, UniProt P41597)
T1 construct: expressed in transfected cells
Assay: compound-induced calcium activity on the FLIPR Tetra in HEK-Gqi5 cells stably expressing CCR2
Type: cell-based
Protocol: HEK-Gqi5 cells stably expressing CCR2 were cultured in DMEM high glucose, 10% FBS, 1% PSA, 400 μg/ml geneticin and 50 μg/ml hygromycin. Appropriate positive control chemokines (MCP-1, MIP1A or RANTES) was used as the positive control agonist for screening compound-induced calcium activity assayed on the FLIPR^Tetra. The drug plates were prepared in 384-well microplates using the EP3 and the MultiPROBE robotic liquid handling systems. Compounds were synthesized and tested for CCR2 activity.

[1] = HEK-Gqi5 cells stably expressing CCR2, calcium activity, FLIPR Tetra
[2] = HEK-Gqi5 cells stably expressing CCR2, calcium activity, FLIPR Tetra, read-out: CCR2 IC50

T1 sequence (P41597 whole entry, species assumed): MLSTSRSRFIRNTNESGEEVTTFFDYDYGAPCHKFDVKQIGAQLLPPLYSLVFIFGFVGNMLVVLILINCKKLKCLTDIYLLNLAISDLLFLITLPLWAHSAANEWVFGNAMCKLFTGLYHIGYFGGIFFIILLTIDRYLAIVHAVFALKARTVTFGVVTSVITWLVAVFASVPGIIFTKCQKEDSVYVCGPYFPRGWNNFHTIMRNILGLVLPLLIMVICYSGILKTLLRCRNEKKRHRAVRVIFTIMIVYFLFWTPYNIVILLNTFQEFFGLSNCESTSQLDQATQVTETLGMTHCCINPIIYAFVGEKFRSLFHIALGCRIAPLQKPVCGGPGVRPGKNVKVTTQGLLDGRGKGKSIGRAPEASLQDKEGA

Q: For COc1ccc(Cl)cc1NS(=O)(=O)c1cc2ccccc2o1 [Compound 1, N-(5-Chloro-2-methoxyphenyl)benzofuran-2-sulfonamide], which “CCR2 ANTAGONISM (%)” value [1] is on record?
A: 97%

Q: And the IC50 [2]?
A: 512 nM

Q: Cc1ccc(Cl)cc1NS(=O)(=O)c1cc2ccccc2o1 [Compound 2, N-(5-Chloro-2-methylphenyl)-1-benzofuran-2-sulfonamide] was tested. Which “CCR2 ANTAGONISM (%)” value [1] did it give?
A: 84%

Q: And the IC50 [2]?
A: 359 nM

Q: For O=S(=O)(Nc1cc(Cl)ccc1OC(F)(F)F)c1cc2ccccc2o1 [Compound 3, N-[5-Chloro-2-(trifluoromethoxy)phenyl]-1-benzofuran-2-sulfonamide], which “CCR2 ANTAGONISM (%)” value [1] is on record?
A: 95%

Q: And the IC50 [2]?
A: 195 nM

Q: Which results are given for COC(=O)c1ccc(Cl)cc1NS(=O)(=O)c1cc2ccccc2o1 [Compound 4, Methyl 2-[(1-benzofuran-2-ylsulfonyl)amino]-4-chlorobenzoate]?
A: CCR2 ANTAGONISM (%) [1]: 95%; IC50 [2]: 1380 nM

Q: CCOc1ccc(Cl)cc1NS(=O)(=O)c1cc2ccccc2o1 [Compound 5, N-(5-Chloro-2-ethoxyphenyl)-1-benzofuran-2-sulfonamide] was tested. Which “CCR2 ANTAGONISM (%)” value [1] did it give?
A: 73%

Q: And the IC50 [2]?
A: 1660 nM

Q: C#Cc1ccc(Cl)cc1NS(=O)(=O)c1cc2ccccc2o1 [Compound 6, N-(5-Chloro-2-ethynylphenyl)-1-benzofuran-2-sulfonamide] was tested. Which “CCR2 ANTAGONISM (%)” value [1] did it give?
A: 93%

Q: And the IC50 [2]?
A: 117 nM

Q: How did the IC50 turn out when O=C1CCN(C(=O)c2ccc(Cl)cc2NS(=O)(=O)c2cc3ccccc3o2)CC1 [Compound 7, N-{5-Chloro-2-[(4-oxopiperidin-1-yl)carbonyl]phenyl}-1-benzofuran-2-sulfonamide] was run?
A: 110 nM

Q: And the “CCR2 ANTAGONISM (%)” value [1]?
A: 93%

Q: How did the “CCR2 ANTAGONISM (%)” value [1] turn out when O=C(c1ccc(Cl)cc1NS(=O)(=O)c1cc2ccccc2o1)N1CCOCC1 [Compound 8, N-[5-Chloro-2-(morpholin-4-ylcarbonyl)phenyl]-1-benzofuran-2-sulfonamide] was run?
A: 84%

Q: And the IC50 [2]?
A: 569 nM

Q: Cc1ncccc1Oc1ccc(Cl)cc1NS(=O)(=O)c1cc2ccccc2o1 [Compound 9, N-{5-Chloro-2-[(2-methylpyridin-3-yl)oxy]phenyl}-1-benzofuran-2-sulfonamide] was tested. Which “CCR2 ANTAGONISM (%)” value [1] did it give?
A: 96%

Q: What about the IC50 [2] of the same compound?
A: 365 nM

Q: For COC(=O)c1ccccc1Oc1ccc(Cl)cc1NS(=O)(=O)c1cc2ccccc2o1 [Compound 10, Methyl 2-{2-[(1-benzofuran-2-ylsulfonyl)amino]-4-chlorophenoxy}benzoate], which “CCR2 ANTAGONISM (%)” value [1] is on record?
A: 98%

Q: And the IC50 [2]?
A: 1020 nM

Q: Which “CCR2 ANTAGONISM (%)” value [1] does the source give for O=C(O)c1ccccc1Oc1ccc(Cl)cc1NS(=O)(=O)c1cc2ccccc2o1 [Compound 11, 2-{2-[(1-Benzofuran-2-ylsulfonyl)amino]-4-chlorophenoxy}benzoic acid] here?
A: 97%

Q: What about the IC50 [2] of the same compound?
A: 60 nM

Q: Which “CCR2 ANTAGONISM (%)” value [1] does the source give for O=S(=O)(Nc1cc(Cl)ccc1Sc1ccccc1)c1cc2ccccc2o1 [Compound 12, N-[5-Chloro-2-(phenylsulfanyl)phenyl]-1-benzofuran-2-sulfonamide] here?
A: 90%

Q: What about the IC50 [2] of the same compound?
A: 124 nM

Q: For O=S(=O)(Nc1cc(Cl)ccc1S(=O)(=O)c1ccccc1)c1cc2ccccc2o1 [Compound 13, N-[5-Chloro-2-(phenylsulfonyl)phenyl]-1-benzofuran-2-sulfonamide], which “CCR2 ANTAGONISM (%)” value [1] is on record?
A: 78%

Q: And the IC50 [2]?
A: 1970 nM

Q: For O=S(=O)(Nc1cc(Cl)ccc1[S+]([O-])c1ccccc1)c1cc2ccccc2o1 (stereo not drawn) [Compound 14, N-[5-Chloro-2-(phenylsulfinyl)phenyl]-1-benzofuran-2-sulfonamide], which “CCR2 ANTAGONISM (%)” value [1] is on record?
A: 105%

Q: What about the IC50 [2] of the same compound?
A: 6 nM

Q: With O=C(Nc1ccccc1)c1ccc(Cl)cc1NS(=O)(=O)c1cc2ccccc2o1 [Compound 15, 2-[(1-Benzofuran-2-ylsulfonyl)amino]-4-chloro-N-phenylbenzamide] as the compound, how does the “CCR2 ANTAGONISM (%)” value [1] read?
A: 95%

Q: What about the IC50 [2] of the same compound?
A: 328 nM

Q: Which results are given for N#Cc1ccc(Cl)cc1NS(=O)(=O)c1cc2ccccc2o1 [Compound 16, N-(5-Chloro-2-cyanophenyl)-1-benzofuran-2-sulfonamide]?
A: CCR2 ANTAGONISM (%) [1]: 102%; IC50 [2]: 409 nM

Q: Which “CCR2 ANTAGONISM (%)” value [1] does the source give for O=C(Cc1ccccc1)c1ccc(Cl)cc1NS(=O)(=O)c1cc2ccccc2o1 [Compound 17, N-[5-Chloro-2-(phenylacetyl)phenyl]-1-benzofuran-2-sulfonamide] here?
A: 79%

Q: What about the IC50 [2] of the same compound?
A: 183 nM

Q: Which “CCR2 ANTAGONISM (%)” value [1] does the source give for CO/N=C(/Cc1ccccc1)c1ccc(Cl)cc1NS(=O)(=O)c1cc2ccccc2o1 [Compound 18, N-{5-Chloro-2-[(1Z)—N-methoxy-2-phenylethanimidoyl]phenyl}-1-benzofuran-2-sulfonamide] here?
A: 76%

Q: How did the “CCR2 ANTAGONISM (%)” value [1] turn out when O=S(=O)(Nc1cc(Cl)ccc1/C(Cc1ccccc1)=N\O)c1cc2ccccc2o1 [Compound 19, N-{5-Chloro-2-[(1Z)—N-hydroxy-2-phenylethanimidoyl]phenyl}-1-benzofuran-2-sulfonamide] was run?
A: 72%

Q: What does the source list for O=S(=O)(Nc1cc(Cl)ccc1OCc1ccccc1)c1cc2ccccc2o1 [Compound 20, N-[2-(Benzyloxy)-5-chlorophenyl]-1-benzofuran-2-sulfonamide]?
A: CCR2 ANTAGONISM (%) [1]: 87%; IC50 [2]: 1630 nM

Q: With O=S(=O)(Nc1cc(Cl)ccc1C#Cc1ccccc1)c1cc2ccccc2o1 [Compound 21, N-[5-Chloro-2-(phenylethynyl)phenyl]-1-benzofuran-2-sulfonamide] as the compound, how does the “CCR2 ANTAGONISM (%)” value [1] read?
A: 30%

Q: Which “CCR2 ANTAGONISM (%)” value [1] does the source give for O=S(=O)(Nc1cc(Cl)ccc1CCc1ccccc1)c1cc2ccccc2o1 [Compound 22, N-[5-Chloro-2-(2-phenylethyl)phenyl]-1-benzofuran-2-sulfonamide] here?
A: 84%

Q: How did the “CCR2 ANTAGONISM (%)” value [1] turn out when Cc1ccc(Sc2ccccc2)c(NS(=O)(=O)c2cc3ccccc3o2)c1 [Compound 24, N-[5-Methyl-2-(phenylsulfanyl)phenyl]-1-benzofuran-2-sulfonamide] was run?
A: 41%

Q: Which results are given for Cc1ccc([S+]([O-])c2ccccc2)c(NS(=O)(=O)c2cc3ccccc3o2)c1 (stereo not drawn) [Compound 25, N-[5-Methyl-2-(phenylsulfinyl)phenyl]-1-benzofuran-2-sulfonamide]?
A: CCR2 ANTAGONISM (%) [1]: 92%; IC50 [2]: 2880 nM

Q: How did the “CCR2 ANTAGONISM (%)” value [1] turn out when Cc1ccc(S(=O)(=O)c2ccccc2)c(NS(=O)(=O)c2cc3ccccc3o2)c1 [Compound 26, N-[5-Methyl-2-(phenylsulfonyl)phenyl]-1-benzofuran-2-sulfonamide] was run?
A: 38%

Q: For O=S(=O)(Nc1cc(F)ccc1Sc1ccccc1)c1cc2ccccc2o1 [Compound 27, N-[5-Fluoro-2-(phenylsulfanyl)phenyl]-1-benzofuran-2-sulfonamide], which “CCR2 ANTAGONISM (%)” value [1] is on record?
A: 74%

Q: What does the source list for O=S(=O)(Nc1cc(F)ccc1[S+]([O-])c1ccccc1)c1cc2ccccc2o1 (stereo not drawn) [Compound 28, N-[5-Fluoro-2-(phenylsulfinyl)phenyl]-1-benzofuran-2-sulfonamide]?
A: CCR2 ANTAGONISM (%) [1]: 91%; IC50 [2]: 317 nM

Q: Which “CCR2 ANTAGONISM (%)” value [1] does the source give for O=S(=O)(Nc1cc(F)ccc1S(=O)(=O)c1ccccc1)c1cc2ccccc2o1 [Compound 29, N-[5-Fluoro-2-(phenylsulfonyl)phenyl]-1-benzofuran-2-sulfonamide] here?
A: 82%

Q: What about the IC50 [2] of the same compound?
A: 2620 nM

Q: How did the “CCR2 ANTAGONISM (%)” value [1] turn out when O=C(O)c1ccccc1COc1ccc(Cl)cc1NS(=O)(=O)c1cc2ccccc2o1 [Compound 31, 2-({2-[(1-Benzofuran-2-ylsulfonyl)amino]-4-chlorophenoxy}methyl)benzoic Acid] was run?
A: 99%

Q: And the IC50 [2]?
A: 27 nM
